Laboratory results reported in PubChem BioAssay (NCI).
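Exposure lasted 48 hours, with cells grown in 96-well plates and compounds tested at five concentrations. GI50: concentration for 50% inhibition of growth. The concentration for full growth arrest is given as TGI.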

Columns and labels:
Test in all cases: DTP human tumour cell line panel, 48 h
SK-MEL-2 melanoma = system: SK-MEL-2 melanoma
ACHN renal = system: ACHN renal
SR leukemia = system: SR leukemia
BT-549 breast = system: BT-549 breast
HOP-92 NSCLC = system: HOP-92 NSCLC
OVCAR-4 ovarian = system: OVCAR-4 ovarian
NCI-H460 lung = system: NCI-H460 lung
SF-295 CNS = system: SF-295 CNS
A498 renal = system: A498 renal
HCT-15 colon = system: HCT-15 colon
MDA-MB-231 breast = system: MDA-MB-231 breast
PC-3 prostate = system: PC-3 prostate
CAKI-1 renal = system: CAKI-1 renal
SW-620 colon = system: SW-620 colon
IGROV1 ovarian = system: IGROV1 ovarian
OVCAR-3 ovarian = system: OVCAR-3 ovarian
M14 melanoma = system: M14 melanoma
NCI-H23 lung = system: NCI-H23 lung
SF-539 CNS = system: SF-539 CNS
HCT-116 colon = system: HCT-116 colon
NCI-H522 lung = system: NCI-H522 lung
COLO 205 colon = system: COLO 205 colon
SK-OV-3 ovarian = system: SK-OV-3 ovarian
RXF 393 renal = system: RXF 393 renal
SNB-75 CNS = system: SNB-75 CNS
RPMI-8226 leukemia = system: RPMI-8226 leukemia
MALME-3M melanoma = system: MALME-3M melanoma
786-0 renal = system: 786-0 renal
EKVX NSCLC = system: EKVX NSCLC
NCI/ADR-RES ovarian = system: NCI/ADR-RES ovarian

Q: For `CN(C)c1ccc(/C=C/c2n(Cc3ccc4ccccc4c3)c3ccccc3[n+]2Cc2ccc3ccccc3c2)cc1`, which TGI (SK-MEL-2 melanoma) is on record?
A: The TGI was 770 nM.

Q: What about the GI50 (ACHN renal) of the same compound?
A: Its GI50 is 326 nM.

Q: What about the TGI (ACHN renal) of the same compound?
A: Its TGI is 1210 nM.

Q: What about the GI50 (SR leukemia) of the same compound?
A: Its GI50 is 399 nM.

Q: And the TGI (SR leukemia)?
A: Its TGI is 2300 nM.

Q: What about the GI50 (BT-549 breast) of the same compound?
A: The GI50 was 187 nM.

Q: What about the TGI (BT-549 breast) of the same compound?
A: The TGI was 809 nM.

Q: And the GI50 (HOP-92 NSCLC)?
A: The GI50 was 162 nM.

Q: What about the TGI (HOP-92 NSCLC) of the same compound?
A: The TGI was 600 nM.

Q: And the GI50 (OVCAR-4 ovarian)?
A: The GI50 was 342 nM.

Q: What about the TGI (OVCAR-4 ovarian) of the same compound?
A: The TGI was 1650 nM.

Q: What about the GI50 (NCI-H460 lung) of the same compound?
A: Its GI50 is 260 nM.

Q: What about the TGI (NCI-H460 lung) of the same compound?
A: The TGI was 1130 nM.

Q: And the GI50 (SF-295 CNS)?
A: The GI50 was 266 nM.

Q: And the TGI (SF-295 CNS)?
A: Its TGI is 996 nM.

Q: And the GI50 (A498 renal)?
A: Its GI50 is 269 nM.

Q: And the TGI (A498 renal)?
A: The TGI was 1150 nM.

Q: What about the GI50 (HCT-15 colon) of the same compound?
A: The GI50 was 458 nM.

Q: What about the TGI (HCT-15 colon) of the same compound?
A: Its TGI is 1740 nM.

Q: And the GI50 (MDA-MB-231 breast)?
A: The GI50 was 292 nM.

Q: And the TGI (MDA-MB-231 breast)?
A: The TGI was 998 nM.

Q: What about the GI50 (PC-3 prostate) of the same compound?
A: The GI50 was 250 nM.

Q: And the TGI (PC-3 prostate)?
A: The TGI was 1250 nM.

Q: What about the GI50 (CAKI-1 renal) of the same compound?
A: The GI50 was 331 nM.

Q: And the TGI (CAKI-1 renal)?
A: The TGI was 1310 nM.

Q: What about the GI50 (SW-620 colon) of the same compound?
A: The GI50 was 319 nM.

Q: What about the TGI (SW-620 colon) of the same compound?
A: The TGI was 1310 nM.

Q: And the GI50 (IGROV1 ovarian)?
A: The GI50 was 382 nM.

Q: And the TGI (IGROV1 ovarian)?
A: Its TGI is 1530 nM.

Q: And the GI50 (OVCAR-3 ovarian)?
A: The GI50 was 267 nM.

Q: And the TGI (OVCAR-3 ovarian)?
A: Its TGI is 1250 nM.

Q: What about the GI50 (M14 melanoma) of the same compound?
A: Its GI50 is 369 nM.

Q: And the TGI (M14 melanoma)?
A: The TGI was 1530 nM.

Q: And the GI50 (NCI-H23 lung)?
A: The GI50 was 250 nM.

Q: And the TGI (NCI-H23 lung)?
A: The TGI was 752 nM.

Q: And the GI50 (SF-539 CNS)?
A: The GI50 was 346 nM.

Q: What about the TGI (SF-539 CNS) of the same compound?
A: The TGI was 1330 nM.

Q: What about the GI50 (HCT-116 colon) of the same compound?
A: The GI50 was 218 nM.

Q: What about the TGI (HCT-116 colon) of the same compound?
A: The TGI was 1300 nM.

Q: What about the GI50 (NCI-H522 lung) of the same compound?
A: Its GI50 is 246 nM.

Q: What about the TGI (NCI-H522 lung) of the same compound?
A: Its TGI is 737 nM.

Q: And the GI50 (COLO 205 colon)?
A: The GI50 was 211 nM.

Q: What about the TGI (COLO 205 colon) of the same compound?
A: The TGI was 434 nM.

Q: And the GI50 (SK-OV-3 ovarian)?
A: The GI50 was 280 nM.

Q: What about the TGI (SK-OV-3 ovarian) of the same compound?
A: Its TGI is 1090 nM.

Q: And the GI50 (RXF 393 renal)?
A: Its GI50 is 231 nM.

Q: What about the TGI (RXF 393 renal) of the same compound?
A: The TGI was 1020 nM.

Q: What about the GI50 (SNB-75 CNS) of the same compound?
A: The GI50 was 240 nM.

Q: What about the TGI (SNB-75 CNS) of the same compound?
A: The TGI was 1140 nM.

Q: And the GI50 (RPMI-8226 leukemia)?
A: Its GI50 is 237 nM.

Q: What about the TGI (RPMI-8226 leukemia) of the same compound?
A: Its TGI is 1130 nM.

Q: What about the GI50 (MALME-3M melanoma) of the same compound?
A: Its GI50 is 249 nM.

Q: What about the TGI (MALME-3M melanoma) of the same compound?
A: The TGI was 740 nM.

Q: And the GI50 (786-0 renal)?
A: Its GI50 is 287 nM.

Q: And the TGI (786-0 renal)?
A: Its TGI is 1440 nM.

Q: What about the GI50 (EKVX NSCLC) of the same compound?
A: Its GI50 is 252 nM.

Q: And the TGI (EKVX NSCLC)?
A: Its TGI is 905 nM.

Q: What about the GI50 (NCI/ADR-RES ovarian) of the same compound?
A: Its GI50 is 1320 nM.

Q: What about the TGI (NCI/ADR-RES ovarian) of the same compound?
A: Its TGI is 3460 nM.
